Test results taken from patent publication US9815791B2, “Alkylpyrazolyl guanidine F1F0-ATPase inhibitors and therapeutic uses thereof” (Lycera Corporation, priority 2013, dated 2017).

Test system: Ramos cells
Assay: Cytotoxicity in Ramos cells
Format: cell-based
Details: Homo sapiens, read-out: Ramos Cell EC50
Experimental: Exemplary compounds described in above Examples were tested for activity against F1F0-ATPase by measuring the ability of the compounds to inhibit ATP synthesis. In addition, the compounds were assessed for cytotoxicity in Ramos cells. Inhibition of F1F0-ATPase activity in synthesizing ATP and cytotoxicity in Ramos cells were measured according to the procedures described in K. M. Johnson et al. Chemistry & Biology 2005, 12, 485-496.

Compound	EC50
CCn1nc(C(F)(F)F)c(C)c1N/C(=N\C(=O)c1ccc(Cl)cc1)Nc1cc(F)cc(Cl)c1 [Compound A-24]	< 10 µM
CCn1nc(C(F)(F)F)c(C)c1N/C(=N\C(=O)c1ccc(Cl)c(F)c1)Nc1cccc(Cl)c1 [Compound A-29]	< 10 µM
Cc1c(NC(=NC(=O)c2ccc(Cl)cc2)Nc2cccc(C(F)(F)F)c2)n[nH]c1C(F)(F)F [Compound A-37]	< 10 µM
Cc1ccc(N/C(=N/C(=O)c2ccc(F)c(F)c2)Nc2[nH]nc(C(F)(F)F)c2C)c(Cl)c1 [Compound A-31]	< 10 µM
Cc1c(NC(=NC(=O)c2ccc(Cl)cc2)Nc2cc(F)cc(Cl)c2)n[nH]c1C(F)(F)F [Compound A-36]	< 10 µM
Cc1ccc(NC(=NC(=O)c2cccc(Cl)c2)Nc2n[nH]c(C(F)(F)F)c2C)c(Cl)c1 [Compound A-35]	< 10 µM
Cc1c(C(F)(F)F)n[nH]c1NC(=NC(=O)c1ccc(Cl)cc1Cl)Nc1cc(F)cc(Cl)c1 [Compound A-11]	< 10 µM
Cc1c(NC(=NC(=O)c2ccc(Cl)c(F)c2)Nc2cc(F)cc(Cl)c2)n[nH]c1C(F)(F)F [Compound A-39]	< 10 µM
CCn1nc(C(F)(F)F)c(C)c1N/C(=N\C(=O)c1ccc(Cl)c(F)c1)Nc1cccc(C(F)(F)F)c1 [Compound A-28]	< 10 µM
CCn1nc(C(F)(F)F)c(C)c1N/C(=N\C(=O)c1ccc(F)c(F)c1)Nc1cccc(Cl)c1 [Compound A-22]	< 10 µM
Cc1c(NC(=NC(=O)c2ccc(Cl)cc2)Nc2cccc(Cl)c2)n[nH]c1C(F)(F)F [Compound A-38]	< 10 µM
Cc1c(N/C(=N\C(=O)c2cccc(Cl)c2)Nc2cc(F)cc(Cl)c2)n[nH]c1C(F)(F)F [Compound A-1]	< 10 µM
Cc1c(NC(=NC(=O)c2cccc(Cl)c2)Nc2cccc(Cl)c2)n[nH]c1C(F)(F)F [Compound A-7]	< 10 µM
CCn1nc(C(F)(F)F)c(C)c1N/C(=N\C(=O)c1ccc(F)c(F)c1)Nc1cccc(C(F)(F)F)c1 [Compound A-21]	< 10 µM
CCn1nc(C(F)(F)F)c(C)c1N/C(=N\C(=O)c1cccc(Cl)c1)Nc1cccc(Cl)c1 [Compound A-19]	< 10 µM
CCn1nc(C(F)(F)F)c(C)c1N/C(=N\C(=O)c1ccc(Cl)cc1Cl)Nc1cccc(C(F)(F)F)c1 [Compound A-13]	< 10 µM
CCn1nc(C(F)(F)F)c(C)c1N/C(=N\C(=O)c1ccc(Cl)cc1Cl)Nc1cccc(Cl)c1 [Compound A-23]	< 10 µM
COc1ccc(C(=O)N=C(Nc2cc(F)cc(Cl)c2)Nc2n[nH]c(C(F)(F)F)c2C)cc1 [Compound A-2]	< 10 µM
Cc1c(N/C(=N\C(=O)c2ccc(F)c(F)c2)Nc2cc(F)cc(Cl)c2)n[nH]c1C(F)(F)F [Compound 1, N-(((3-Chloro-5-fluorophenyl)amino)((4-methyl-5-(trifluoromethyl)-1H-pyrazol-3-yl)amino)methylene)-3,4-difluorobenzamide]	< 10 µM

Compound	EC50
Cc1ccc(NC(=NC(=O)c2ccc(Cl)cc2Cl)Nc2n[nH]c(C(F)(F)F)c2C)c(Cl)c1 [Compound A-33]	< 10 µM
CCn1nc(C(F)(F)F)c(C)c1N/C(=N\C(=O)c1ccc(OC)cc1)Nc1cccc(C(F)(F)F)c1 [Compound A-15]	< 10 µM
CCn1nc(C(F)(F)F)c(C)c1N/C(=N\C(=O)c1cccc(Cl)c1)Nc1cccc(C(F)(F)F)c1 [Compound A-18]	< 10 µM
CCn1nc(C(F)(F)F)c(C)c1N/C(=N\C(=O)c1ccc(Cl)cc1Cl)Nc1cc(F)cc(Cl)c1 [Compound A-12]	< 10 µM
COc1ccc(C(=O)N=C(Nc2cccc(Cl)c2)Nc2n[nH]c(C(F)(F)F)c2C)cc1 [Compound A-10]	< 10 µM
CCn1nc(C(F)(F)F)c(C)c1N/C(=N\C(=O)c1ccc(Cl)c(F)c1)Nc1cc(F)cc(Cl)c1 [Compound A-27]	< 10 µM
Cc1c(NC(=NC(=O)c2ccc(Cl)cc2Cl)Nc2cccc(C(F)(F)F)c2)n[nH]c1C(F)(F)F [Compound A-8]	< 10 µM
CCn1nc(C(F)(F)F)c(C)c1N/C(=N\C(=O)c1ccc(Cl)cc1)Nc1cccc(Cl)c1 [Compound A-26]	< 10 µM
Cc1c(NC(=NC(=O)c2ccc(Cl)cc2Cl)Nc2ccc(Cl)cc2Cl)n[nH]c1C(F)(F)F [Compound A-32]	< 10 µM
Cc1c(NC(=NC(=O)c2ccc(Cl)c(F)c2)Nc2cccc(Cl)c2)n[nH]c1C(F)(F)F [Compound A-41]	< 10 µM
Cc1c(NC(=NC(=O)c2ccc(C(F)(F)F)cc2)Nc2cccc(Cl)c2)n[nH]c1C(F)(F)F [Compound A-42]	< 10 µM
Cc1c(C(F)(F)F)n[nH]c1NC(=NC(=O)c1ccc(F)c(F)c1)Nc1ccc(Cl)cc1Cl [Compound A-30]	< 10 µM
CCn1nc(C(F)(F)F)c(C)c1N/C(=N\C(=O)c1ccc(Cl)cc1)Nc1cccc(C(F)(F)F)c1 [Compound A-25]	< 10 µM
CCn1nc(C(F)(F)F)c(C)c1N/C(=N\C(=O)c1cccc(Cl)c1)Nc1cc(F)cc(Cl)c1 [Compound A-17]	< 10 µM
CCn1nc(C(F)(F)F)c(C)c1N/C(=N\C(=O)c1ccc(F)c(F)c1)Nc1cc(F)cc(Cl)c1 [Compound A-20]	< 10 µM
Cc1c(NC(=NC(=O)c2ccc(Cl)cc2Cl)Nc2cccc(Cl)c2)n[nH]c1C(F)(F)F [Compound A-9]	< 10 µM
CCn1nc(C(F)(F)F)c(C)c1N/C(=N\C(=O)c1ccc(OC)cc1)Nc1cccc(Cl)c1 [Compound A-16]	< 10 µM
CCn1nc(C(F)(F)F)c(C)c1N/C(=N\C(=O)c1ccc(OC)cc1)Nc1cc(F)cc(Cl)c1 [Compound A-14]	< 10 µM

Test system: not listed separately
Assay: Blood plasma levels after oral administration to mice
Format: in vivo
Details: mouse, 10 mg/kg, heading: AUC0-24, oral gavage, 5 mL/Kg of 2 mg/mL lipid emulsion
Experimental: (§1) Exemplary compounds were administered orally to animals (i.e., mice or rats), and then blood samples were taken from the animal at set time points and analyzed for the amount of test compound in the blood sample. Experimental procedures and results are described below.
(§2) A lipid emulsion containing the test compound was prepared by first dissolving the test compound in 1:4 Labrafil M1944:Solutol, then adding 0.5% carboxymethylcellulose in water with vigorous stirring to achieve a final ratio of 5:20:75 Labrafil:Solutol:0.5% aqueous CMC. The concentration of test compound in the lipid emulsion was 2 mg/mL.
(§3) Animals (mice or rats) were dosed by oral gavage using 5 mL/Kg of dosing solution. Animals were serially bled from the dorsal metatarsal vein (mice) or jugular vein (rats) at 30 minutes, 1 h, 2 h, 4 h, 8 h and 24 h post-dose. Test compounds 1 and B-1 were administered to a mice. Test compounds A-1 and B-2 were administered to rats.
(§4) The desired serial concentrations of working solutions were achieved by diluting a stock solution of analyte with 60% acetonitrile in water solution. A 5 μL aliquot of working solutions at 10, 20, 50, 100, 500, 1000, 5000, and 10000 ng/mL were added to 50 μL of blank plasma to achieve calibration standards of 1-1000 ng/mL (1, 2, 5, 10, 50, 100, 500, 1000 ng/mL) in a total volume of 55 μL.
(§5) Four quality control samples at 3 ng/mL (low 1), 5 ng/mL (low 2), 50 ng/mL (medium), and 800 ng/mL (high) were prepared independently of those used for the calibration curves. These QC samples were prepared on the day of analysis in the same way as calibration standards.
(§6) 55 μL standards, 55 μL QC samples, and 55 μL unknown samples were added to 200 μL of acetonitrile for precipitating protein respectively. Then, the samples were vortexed for 30 seconds at 4 degree Celsius. After centrifugation at 4 degree Celsius (i.e., 15000 rpm for 5 min) a 20 μL aliquot of the supernatant was analyzed by LC/MS. Unknowns were compared to standards to obtain test compound concentrations for each sample.

Compound	AUC(0-t)
O=C(/N=C(/Nc1cc(F)cc(Cl)c1)Nc1cc(C(F)(F)F)[nH]n1)c1ccc(F)c(F)c1 [Compound B-1, reference compound]	4530 ng·h/mL

Same assay, conditions: mouse, 10 mg/kg, oral gavage, 5 mL/Kg of 2 mg/mL lipid emulsion

Compound	Cmax
Cc1c(N/C(=N\C(=O)c2ccc(F)c(F)c2)Nc2cc(F)cc(Cl)c2)n[nH]c1C(F)(F)F [Compound 1, N-(((3-Chloro-5-fluorophenyl)amino)((4-methyl-5-(trifluoromethyl)-1H-pyrazol-3-yl)amino)methylene)-3,4-difluorobenzamide]	1590 ng/mL
O=C(/N=C(/Nc1cc(F)cc(Cl)c1)Nc1cc(C(F)(F)F)[nH]n1)c1ccc(F)c(F)c1 [Compound B-1, reference compound]	609 ng/mL

Same assay, conditions: mouse, 10 mg/kg, oral gavage, 5 mL/Kg of 2 mg/mL lipid emulsion, read-out: AUC0-24

Compound	AUC(0-t)
Cc1c(N/C(=N\C(=O)c2ccc(F)c(F)c2)Nc2cc(F)cc(Cl)c2)n[nH]c1C(F)(F)F [Compound 1, N-(((3-Chloro-5-fluorophenyl)amino)((4-methyl-5-(trifluoromethyl)-1H-pyrazol-3-yl)amino)methylene)-3,4-difluorobenzamide]	8760 ng·h/mL

Test system: not listed separately
Assay: Blood plasma levels after oral administration to rats
Format: in vivo
Details: rat, 10 mg/kg, heading: AUC0-24, oral gavage, 5 mL/Kg of 2 mg/mL lipid emulsion
Experimental: as §1, §2, §3, §4, §5, §6

Compound	AUC(0-t)
Cc1c(N/C(=N\C(=O)c2cccc(Cl)c2)Nc2cc(F)cc(Cl)c2)n[nH]c1C(F)(F)F [Compound A-1]	10500 ng·h/mL
O=C(/N=C(/Nc1cc(F)cc(Cl)c1)Nc1cc(C(F)(F)F)[nH]n1)c1cccc(Cl)c1 [Compound B-2, reference compound]	5480 ng·h/mL

Same assay, conditions: rat, 10 mg/kg, oral gavage, 5 mL/Kg of 2 mg/mL lipid emulsion

Compound	Cmax
Cc1c(N/C(=N\C(=O)c2cccc(Cl)c2)Nc2cc(F)cc(Cl)c2)n[nH]c1C(F)(F)F [Compound A-1]	1440 ng/mL
O=C(/N=C(/Nc1cc(F)cc(Cl)c1)Nc1cc(C(F)(F)F)[nH]n1)c1cccc(Cl)c1 [Compound B-2, reference compound]	541 ng/mL
